This is an account of results in US20090054412A1, “Treatment of Sleep Disorders” (priority 2007, published 2009).

Values joined by “and” are separate entries in the source; they are usually repeats but may differ in a detail not shown here. Identical values can stand only once.

Assay [1] addresses T1, rat GABAA receptors α1β2γ2 (Rattus norvegicus, UniProt P18508+P62813).
T1 construct: expressed in transfected cells; host or cells: Xenopus laevis oocytes, cRNA microinjected
As to the kind of experiment: Stimulation of GABA (EC3-5)-elicited currents in Xenopus oocytes, two-electrode voltage clamp, α1β2γ2. Particulars: for Standardized Efficacy: standardized to stimulation by 1 μM diazepam (100%). It counts as cell-based. An excerpt: (§1) 7-Chloro-3-(5-dimethylaminomethyl-[1,2,4]oxadiazol-3-yl)-5methyl-4,5-dihydro-imidazol[1,5,-a][1,4]benzodiazepine-6-one was used to test the effects of the compound of formula (II): […]
(§2) Similar procedures were chosen as for the investigation of other GABAA receptor subunit specific substances (e.g., Baur et al., 2005; Mol. Pharmacol. 68, 787-792).
(§3) Lobes of the ovary containing the follicles were obtained by surgical procedures from female Xenopus laevis. Follicles were singled out using a platinum loop. Fifty nL of cRNA solution at a ratio of αx:β2:γ2 of 1:1:5 (3.3-10 nM αx (x=1,2,3,5); 3.3-10 nM β2; 16.7-50 nM γ2) (Boileau et al., 2002; Neuropharmacology 43, 695-700) were microinjected into Xenopus follicles. Several hours after microinjection the follicles were freed of follicular layers and adhering connective tissue by a collagenase/hypertonic shock procedure (Sigel, 1987; J. Physiol.(Land) 386, 73-90). Oocytes were kept at constant 18° C. until measurement (1-4 days) in a modified Barth solution (88 mM NaCl, 1 mM KCl, 2.4 mM NaHCO3, 10 mM Hepes-NaOH (pH 7.5), 0.82 mM MgSO4×7H2O, 0.34 mM Ca(NO3)2×4H2O, 0.41 mM CaCl2×2H2O, 100 U Penicillin/mL, 100 μg Streptomycin/mL, sterile filtered).
(§4) Currents were measured using a home-built amplifier in combination with a xy-recorder or were digitized using a MacLab/200 (AD Instruments) and stored on a computer. Xenopus oocytes were voltage clamped using the two-electrode voltage clamp technique (electrode resistance about 0.8 MΩ) at −80 mV. The medium contained 90 mM NaCl, 1 mM KCl, 1 mM MgCl2, 1 mM CaCl2, 10 mM Na-Hepes (pH 7.4) and 0.5% DMSO.
(§5) GABA was applied for 20-50 seconds without or in combination with other drugs and a washout period of 4 minutes was allowed to ensure full recovery from desensitization, which was experimentally determined. The perfusion solution (6 mL/min) was applied through a glass capillary with an inner diameter of 1.35 mm, the mouth of which was placed about 0.4 mm from the surface of the oocyte. The rate of solution change under our conditions has been estimated 70% within less than 0.5 s (Sigel et al., 1990; Neuron 5, 703-711). The entire perfusion system and the assay chamber were cleaned between drug applications by washing with DMSO.
(§6) Data is given as mean±SD, except in the figures where data is shown for clarity as mean±SEM. Current stimulation was calculated as follows: stimulation (%)=((I(GABA+modulator)−I(GABA))/I(GABA))×100%, where I is the current amplitude. Where indicated, the stimulation was standardized to the stimulation by 1 μM diazepam (100%). To obtain FIGS. 1-4, values for current stimulation obtained at a given concentration of modulator at a given subunit combination were averaged. The data points were fitted with the equation stimulation=efficacy/(1+(potency/concentration of modulator)). The values given in the Tables (Summary) are obtained by fitting individual curves and subsequently averaging efficacy and potency.
GABA (EC3-5) was applied to an oocyte expressing α1β2γ2 GABAA receptors several times until the current response was stable. The GABA (EC3-5) refers to the effective concentration of GABA, which produces a response that is 3-5% of the maximal response to high concentrations of GABA. Such a low concentration of GABA is chosen in order to better see the potentiating effect of positive allosteric modulators.
GABA was then applied in combination with various concentrations of the compound of formula (II) between 0.3 nM and 3,000 nM to produce a cumulative concentration response curve. […] In each batch of oocytes the stimulation by 1 μM diazepam was determined in five ocytes, extent of stimulation averaged and defined as 100%. Where indicated, stimulation by the compound of formula (II) in each batch of ocytes was expressed as a percentage of this value in the corresponding batch.
GABA (EC3-5) was applied to an oocyte expressing α1β2γ2 GABAA receptors several times until the current response was stable.
A general note: Two-electrode voltage clamp is typically applied to oocytes expressing channels or transporters.

Assay [2] addresses T2, rat GABAA receptors α2β2γ2 (Rattus norvegicus, UniProt P18508+P23576).
T2 construct: expressed in transfected cells; host or cells: Xenopus laevis oocytes, cRNA microinjected
Kind of assay: Stimulation of GABA (EC3-5)-elicited currents in Xenopus oocytes, two-electrode voltage clamp, α2β2γ2. It counts as cell-based.
Description: as §1, §2, §3, §4, §5, §6
(§7) Concentration response curves were also performed with oocytes expressing α2β2γ2, α3β2γ2, or α5β2γ2, after establishing the optimal concentration range as indicated above. […] Averaged data of the individual curves summarizing the effects of the compound of formula (II) are shown below for unstandardized and standardized stimulation.
(§8) Concentration response curves were also performed with oocytes expressing α2β2γ2, α3β2γ2, or α5β2γ2.
(§9) Current stimulation by diazepam was determined in each batch of oocytes as follows. GABA (EC3-5) was applied until a stable response was obtained. Subsequently, GABA was applied in combination with 1 μM diazepam.

Assay [3] concerns the target T3, rat GABAA receptors α3β2γ2 (Rattus norvegicus, UniProt P18508+P20236).
T3 construct: expressed in transfected cells; host or cells: Xenopus laevis oocytes, cRNA microinjected
As to the kind of experiment: Stimulation of GABA (EC3-5)-elicited currents in Xenopus oocytes, two-electrode voltage clamp, α3β2γ2. It counts as cell-based.
Description: as §1, §2, §3, §4, §5, §6, §7, §8, §9

For assay [4], the target named is T4, rat GABAA receptors α5β2γ2 (Rattus norvegicus, UniProt P18508+P19969).
T4 construct: expressed in transfected cells; host or cells: Xenopus laevis oocytes, cRNA microinjected
T4 sequence (P19969 32-464 limits assumed): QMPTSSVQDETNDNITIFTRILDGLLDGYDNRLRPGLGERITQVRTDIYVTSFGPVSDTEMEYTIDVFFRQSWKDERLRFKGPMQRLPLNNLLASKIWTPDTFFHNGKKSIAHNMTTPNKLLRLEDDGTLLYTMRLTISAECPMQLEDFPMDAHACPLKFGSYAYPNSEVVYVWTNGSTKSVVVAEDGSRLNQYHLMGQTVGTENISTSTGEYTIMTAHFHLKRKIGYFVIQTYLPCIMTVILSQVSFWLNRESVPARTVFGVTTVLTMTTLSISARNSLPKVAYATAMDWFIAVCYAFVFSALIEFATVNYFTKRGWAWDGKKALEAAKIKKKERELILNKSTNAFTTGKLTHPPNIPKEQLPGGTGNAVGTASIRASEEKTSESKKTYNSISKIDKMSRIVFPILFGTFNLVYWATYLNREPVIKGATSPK
T4 sequence (P63138 25-474 partner limits assumed): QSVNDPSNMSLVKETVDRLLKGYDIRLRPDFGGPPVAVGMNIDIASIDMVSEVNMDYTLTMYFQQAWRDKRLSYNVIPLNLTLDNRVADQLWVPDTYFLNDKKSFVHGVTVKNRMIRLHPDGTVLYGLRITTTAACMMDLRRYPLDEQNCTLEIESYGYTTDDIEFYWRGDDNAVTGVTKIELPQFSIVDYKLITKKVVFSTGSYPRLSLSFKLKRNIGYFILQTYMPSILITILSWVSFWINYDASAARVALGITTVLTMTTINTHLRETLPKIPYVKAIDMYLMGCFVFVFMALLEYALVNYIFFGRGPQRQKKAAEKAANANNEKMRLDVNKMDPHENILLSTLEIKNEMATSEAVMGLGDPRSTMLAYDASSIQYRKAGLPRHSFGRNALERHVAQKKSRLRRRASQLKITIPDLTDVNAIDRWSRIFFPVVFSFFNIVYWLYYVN
T4 sequence (P18508 39-466): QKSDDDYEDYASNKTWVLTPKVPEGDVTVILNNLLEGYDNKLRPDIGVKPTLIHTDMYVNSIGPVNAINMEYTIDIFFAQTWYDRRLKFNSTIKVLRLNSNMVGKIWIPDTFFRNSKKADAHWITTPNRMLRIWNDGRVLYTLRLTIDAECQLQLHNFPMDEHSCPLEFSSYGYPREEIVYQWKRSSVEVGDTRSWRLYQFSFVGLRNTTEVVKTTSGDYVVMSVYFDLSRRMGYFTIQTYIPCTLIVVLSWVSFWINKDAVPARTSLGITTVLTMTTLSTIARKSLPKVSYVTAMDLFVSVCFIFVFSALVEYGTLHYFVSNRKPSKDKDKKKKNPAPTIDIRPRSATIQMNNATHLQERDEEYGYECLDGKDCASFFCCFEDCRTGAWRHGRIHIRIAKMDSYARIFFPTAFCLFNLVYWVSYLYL
Kind of assay: Stimulation of GABA (EC3-5)-elicited currents in Xenopus oocytes, two-electrode voltage clamp, α5β2γ2. It counts as cell-based.
Description: as §1, §2, §3, §4, §5, §6, §7, §8, §9

The next assay has as its system GABAA receptors. The note with it: 20 mg, in man, PET; cited from earlier work.
Where [5] appears, read: standardized to stimulation by 1 μM diazepam (100%).
Setting [6] is: unstandardized current stimulation.
The mark [7] stands for this setting: 1 μM, different batches of oocytes, n=5.

T2 sequence (P23576 29-451): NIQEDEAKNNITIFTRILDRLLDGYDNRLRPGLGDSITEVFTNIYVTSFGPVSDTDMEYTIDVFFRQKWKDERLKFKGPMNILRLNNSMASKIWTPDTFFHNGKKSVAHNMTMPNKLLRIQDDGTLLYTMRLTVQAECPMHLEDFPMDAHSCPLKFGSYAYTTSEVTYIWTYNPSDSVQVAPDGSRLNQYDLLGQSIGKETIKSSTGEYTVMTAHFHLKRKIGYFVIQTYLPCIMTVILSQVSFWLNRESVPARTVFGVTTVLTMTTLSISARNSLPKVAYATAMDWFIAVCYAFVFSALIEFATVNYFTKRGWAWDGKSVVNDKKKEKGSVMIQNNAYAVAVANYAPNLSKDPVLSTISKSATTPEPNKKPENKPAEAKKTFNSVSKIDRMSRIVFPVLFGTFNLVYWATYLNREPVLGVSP
T2 sequence (P63138 25-474 partner limits assumed): as the sequence (P63138 25-474 partner limits assumed) above
T2 sequence (P18508 39-466): as the sequence (P18508 39-466) above
T1 sequence (P62813 28-455): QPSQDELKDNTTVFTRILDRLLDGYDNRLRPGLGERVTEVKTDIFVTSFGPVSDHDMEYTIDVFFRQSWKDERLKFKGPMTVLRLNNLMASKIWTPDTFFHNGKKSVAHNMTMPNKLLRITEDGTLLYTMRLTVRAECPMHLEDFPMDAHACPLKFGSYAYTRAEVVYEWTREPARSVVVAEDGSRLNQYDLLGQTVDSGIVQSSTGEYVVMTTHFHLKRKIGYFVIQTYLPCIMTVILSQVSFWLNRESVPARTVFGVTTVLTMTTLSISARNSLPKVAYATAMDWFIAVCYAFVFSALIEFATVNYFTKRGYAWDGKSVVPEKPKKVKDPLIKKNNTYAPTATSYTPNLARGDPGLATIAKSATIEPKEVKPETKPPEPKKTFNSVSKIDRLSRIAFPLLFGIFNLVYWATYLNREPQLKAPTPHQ
T1 sequence (P63138 25-474 partner limits assumed): as the sequence (P63138 25-474 partner limits assumed) above
T1 sequence (P18508 39-466): as the sequence (P18508 39-466) above
T3 sequence (P20236 29-493): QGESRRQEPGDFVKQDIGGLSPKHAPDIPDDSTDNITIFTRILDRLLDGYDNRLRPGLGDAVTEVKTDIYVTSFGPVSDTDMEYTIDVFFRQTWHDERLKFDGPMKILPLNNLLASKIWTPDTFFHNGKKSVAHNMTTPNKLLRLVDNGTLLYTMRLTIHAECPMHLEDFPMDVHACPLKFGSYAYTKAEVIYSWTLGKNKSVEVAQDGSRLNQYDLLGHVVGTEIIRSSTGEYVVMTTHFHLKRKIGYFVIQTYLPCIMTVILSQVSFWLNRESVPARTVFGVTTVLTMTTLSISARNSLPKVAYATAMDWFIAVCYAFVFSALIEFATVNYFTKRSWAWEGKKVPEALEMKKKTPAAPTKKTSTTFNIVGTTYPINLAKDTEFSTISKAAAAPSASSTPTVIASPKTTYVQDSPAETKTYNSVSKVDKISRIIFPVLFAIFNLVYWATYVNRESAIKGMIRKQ
T3 sequence (P63138 25-474 partner limits assumed): as the sequence (P63138 25-474 partner limits assumed) above
T3 sequence (P18508 39-466): as the sequence (P18508 39-466) above

For the compound `Cc1ccc(-c2nc3ccc(C)cn3c2CC(=O)N(C)C)cc1` [Zolpidem, zolpidem], in assay [1] (GABAA receptor benzodiazepine site, relative to diazepam), the “Intrinsic activity / type of allosteric modulation” value is reported as “full agonist”. In assay [1] (in comparison to α2β2γ2, α3β2γ2 and α5β2γ2), the Receptor subtype affinity result is “higher affinity at α1β2γ2 GABAA receptors”. For the same compound, the “Standardized Efficacy” value in assay [1] (α1β2γ2) is 215 ± 74%; in assay [1] (α1β2γ2, listed as zolpidem), 215%; in assay [2] (setting [5]), 179 ± 23%; in assay [3] (setting [5]) it was 166 ± 88%; in assay [4] (setting [5]), 16 ± 4%. Also, the Efficacy in assay [1] (α1β2γ2, unstandardized current stimulation) is 429 ± 120%; in assay [2] (setting [6]) it was 484 ± 60%; in assay [3] (setting [6]) it was 691 ± 365%; in assay [4] (setting [6]), 33 ± 12%. Moreover, the receptor occupancy entry in the assay on GABAA receptors is “about 20%”.
Turning to `CN1C(=O)CN=C(c2ccccc2)c2cc(Cl)ccc21` [diazepam], the “Stimulation by 1 μM diazepam” value in assay [1] (α1β2γ2, 1 μM, different batches of oocytes, n=5) was 223+28% and 178+20%; in assay [2] (setting [7]) it was 264+61% and 280+71% and 318+62%; in assay [3] (setting [7]) it was 417+85% and 417+144%; in assay [4] (setting [7]), 237+97% and 160+4%.
